In ChEMBL document CHEMBL1201862, “PubChem BioAssay data set” (2004):
The source made the active and inactive calls.

Tests used:
[1] = inhibitors of intracellular T. cruzi replication, confirmation, NIH3T3 host cells, beta-gal luminescence (AID 2044); format: functional, cell-based;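 further: intracellular parasites grown in NIH/3T3 mouse fibroblasts as host cells; luminescent beta-galactosidase reporter signal from transgenic T. cruzi replicating inside host cells; inhibitors lower the luminescence signal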
[2] = cytotoxicity toward NIH3T3 fibroblasts, dose response, counter-screen, cell-based, ATP luminescence, mouse fibroblasts (AID 2010); format: functional; details: NIH3T3;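 further: cells exposed to compound for about 90 hours before reading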
[3] = cells
[4] = target: T1, Mucolipin-3 (Homo sapiens, UniProt Q8TDD5); experiment: Dose response cell-based high-throughput screening assay for agonists of the transient receptor potential channel ML3 (TRPML3). [Related pubchem assays: 1526, 1424, 1448 ]; format: functional
T1 sequence (Q8TDD5 whole entry): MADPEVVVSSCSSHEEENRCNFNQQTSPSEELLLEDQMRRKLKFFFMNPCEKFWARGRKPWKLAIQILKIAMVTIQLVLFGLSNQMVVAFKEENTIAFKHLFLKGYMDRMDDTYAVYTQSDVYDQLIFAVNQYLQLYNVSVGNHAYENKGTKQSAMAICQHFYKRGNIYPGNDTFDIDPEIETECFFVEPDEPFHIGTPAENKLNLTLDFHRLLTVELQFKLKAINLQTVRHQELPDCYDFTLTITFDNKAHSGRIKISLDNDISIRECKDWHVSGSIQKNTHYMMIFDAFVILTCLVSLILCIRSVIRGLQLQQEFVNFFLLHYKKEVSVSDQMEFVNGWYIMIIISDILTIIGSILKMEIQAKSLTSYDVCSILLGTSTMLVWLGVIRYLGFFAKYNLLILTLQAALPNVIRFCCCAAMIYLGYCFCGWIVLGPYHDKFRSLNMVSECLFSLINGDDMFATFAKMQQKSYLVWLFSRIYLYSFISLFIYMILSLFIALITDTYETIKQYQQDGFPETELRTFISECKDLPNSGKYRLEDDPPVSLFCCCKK

[5] = target: Ion channel NompC (Danio rerio, UniProt Q7T1G6); experiment: Fluorescence counterscreen assay for TRPML3 agonists: dose response cell-based high-throughput screening assay to identify agonists of the transient receptor potential channel N1 (TRPN1). [Related pubchem assays: 1526, 1424, 1448 ]; format: functional
Sequence of Ion channel NompC (Q7T1G6 whole entry): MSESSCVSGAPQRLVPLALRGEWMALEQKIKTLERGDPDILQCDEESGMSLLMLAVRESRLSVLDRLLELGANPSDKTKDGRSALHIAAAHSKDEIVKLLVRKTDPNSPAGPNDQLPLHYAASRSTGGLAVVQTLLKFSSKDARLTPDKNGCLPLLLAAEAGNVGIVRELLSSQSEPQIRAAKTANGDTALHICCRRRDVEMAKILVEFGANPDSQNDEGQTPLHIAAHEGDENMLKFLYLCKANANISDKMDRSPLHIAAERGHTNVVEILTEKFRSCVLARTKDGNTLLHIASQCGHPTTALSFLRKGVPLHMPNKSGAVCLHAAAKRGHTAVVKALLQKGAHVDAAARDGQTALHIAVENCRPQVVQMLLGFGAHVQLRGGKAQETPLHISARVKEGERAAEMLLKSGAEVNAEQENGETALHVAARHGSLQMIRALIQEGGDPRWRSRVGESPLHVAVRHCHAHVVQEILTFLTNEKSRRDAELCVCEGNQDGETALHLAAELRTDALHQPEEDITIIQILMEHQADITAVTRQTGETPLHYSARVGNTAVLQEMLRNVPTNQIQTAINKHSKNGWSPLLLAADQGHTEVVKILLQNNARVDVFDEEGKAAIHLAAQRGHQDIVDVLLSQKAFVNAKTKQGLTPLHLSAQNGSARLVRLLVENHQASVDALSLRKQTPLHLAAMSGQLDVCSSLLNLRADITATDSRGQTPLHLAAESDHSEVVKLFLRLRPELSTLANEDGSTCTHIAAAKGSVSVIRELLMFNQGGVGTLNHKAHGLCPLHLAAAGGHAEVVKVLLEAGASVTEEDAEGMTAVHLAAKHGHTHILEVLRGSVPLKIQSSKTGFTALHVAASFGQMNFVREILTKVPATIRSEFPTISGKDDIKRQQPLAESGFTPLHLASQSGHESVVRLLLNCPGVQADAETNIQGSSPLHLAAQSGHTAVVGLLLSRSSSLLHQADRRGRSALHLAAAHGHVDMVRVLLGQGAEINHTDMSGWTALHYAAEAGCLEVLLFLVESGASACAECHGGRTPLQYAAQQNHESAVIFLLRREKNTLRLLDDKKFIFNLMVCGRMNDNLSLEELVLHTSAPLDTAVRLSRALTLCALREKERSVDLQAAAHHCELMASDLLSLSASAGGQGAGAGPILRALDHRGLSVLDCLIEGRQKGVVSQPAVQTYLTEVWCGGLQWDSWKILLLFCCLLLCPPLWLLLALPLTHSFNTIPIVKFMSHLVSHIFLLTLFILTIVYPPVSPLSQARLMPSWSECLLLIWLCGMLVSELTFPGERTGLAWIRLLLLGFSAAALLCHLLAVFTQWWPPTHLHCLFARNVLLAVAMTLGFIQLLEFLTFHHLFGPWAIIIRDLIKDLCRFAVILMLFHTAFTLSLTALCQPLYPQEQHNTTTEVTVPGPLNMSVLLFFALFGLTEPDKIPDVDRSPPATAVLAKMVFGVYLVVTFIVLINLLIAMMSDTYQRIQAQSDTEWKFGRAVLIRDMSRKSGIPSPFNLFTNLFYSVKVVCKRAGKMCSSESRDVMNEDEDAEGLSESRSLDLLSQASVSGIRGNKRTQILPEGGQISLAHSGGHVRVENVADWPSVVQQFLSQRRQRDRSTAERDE

[6] = target: Cytochrome P450 3A4 (Homo sapiens, UniProt P08684); details: Potency;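 further: confirmatory qHTS run detecting inhibitors and substrates of CYP3A4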
Sequence of Cytochrome P450 3A4 (P08684 whole entry): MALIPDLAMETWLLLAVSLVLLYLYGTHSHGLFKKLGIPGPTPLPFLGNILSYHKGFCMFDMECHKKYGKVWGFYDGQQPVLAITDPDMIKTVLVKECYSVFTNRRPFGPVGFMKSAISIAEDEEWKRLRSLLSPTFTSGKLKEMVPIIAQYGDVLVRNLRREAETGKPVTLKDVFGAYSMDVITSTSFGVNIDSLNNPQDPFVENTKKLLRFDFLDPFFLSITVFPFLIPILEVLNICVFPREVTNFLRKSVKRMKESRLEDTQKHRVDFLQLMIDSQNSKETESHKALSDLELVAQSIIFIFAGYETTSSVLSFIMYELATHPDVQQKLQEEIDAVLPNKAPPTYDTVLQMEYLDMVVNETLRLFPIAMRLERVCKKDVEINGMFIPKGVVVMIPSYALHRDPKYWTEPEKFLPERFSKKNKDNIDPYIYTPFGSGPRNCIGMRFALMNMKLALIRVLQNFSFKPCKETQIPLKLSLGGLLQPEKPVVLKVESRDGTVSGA

[7] = cytotoxicity in HPDE-C7 cells, cell-based, fluorescence, HTS (AID 430); format: functional; details: Homo sapiens
[8] = cytotoxicity in KRAS-transformed pancreatic duct cells, primary screen, cell-based, fluorescence, HTS (AID 431); format: functional; details: Homo sapiens;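 further: cell line used: HPDE-C7K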
[9] = CellTiter-Glo luminescent dose response of DLD-1 viability loss (AID 1117352); format: functional
[10] = cytotoxicity toward HCT116 cells – cell-based, CellTiter-Glo luminescence, IC50, dose response (AID 1117332); format: functional; details: HCT-116
[11] = RKO cell viability reduction, dose response, CellTiter-Glo luminescence (AID 1117322); format: functional
[12] = Concentration-dependent survival of SW480 colon cancer line, luminescence detection with CellTiter-Glo, half-maximal inhibitory concentration (AID 1117338); format: functional
[13] = SNU-C1 cell viability reduction, dose response, CellTiter-Glo luminescence (AID 1117323); format: functional, cell-based
[14] = cytotoxicity toward Colo320 cells – cell-based, CellTiter-Glo luminescence, IC50, dose response (AID 1117334); format: functional; details: COLO 320
[15] = cytotoxicity toward HT-29 cells – cell-based, CellTiter-Glo luminescence, IC50, dose response (AID 1117330); format: functional
[16] = HCT116 cell viability decrease, GSK3B pretreatment – CellTiter-Glo, IC50, dose response (AID 1117339); format: functional; details: HCT-116
[17] = NIH-3T3 fibroblast cytotoxicity, dose response, cytotoxicity control, cell-based, fluorescence, Alamar Blue, secondary assay (AID 2327); format: functional;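 further: NIH-3T3 mouse fibroblasts cultured with fluconazole at 8 µg/mL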
[18] = inhibitors of firefly luciferase expression or activity, dose response, H4 neuroglioma cells, luminescence (AID 1990); format: functional, cell-based
[19] = Luminescence Cell-Based Dose Response HTS to Identify Inhibitors of 5'UTR Stem-Loop Driven Prion Protein mRNA Translation in H4 Neuroglioblastoma Cells. [Related pubchem assays: 1827 (Project Summary), 1813 (Primary HTS)]; format: functional
[20] = inhibitors of SNCA 5'UTR-driven reporter translation, confirmation, H4 neuroglioma cells, luminescence (AID 1988); format: functional, cell-based
[21] = C. albicans growth with fluconazole, confirmation, fluorescence, retest (AID 2467); format: functional, cell-based
[22] = ZM109 Env clade C HIV-1 fusion inhibitors, dose response, HeLa effector, CEM target cells, luciferase, cherry-pick (AID 652058); format: functional, cell-based
[23] = cells; format: functional, cell-based
[24] = inhibitors of clade B AD8 Env fusion, dose response, cell-based, cherry-pick (AID 652062); format: functional;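 further: luciferase signal from cell-cell fusion driven by HIV-1 clade B AD8 Env; potency is for inhibitors of fusion seen as a drop in luminescence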
[25] = off-target signal loss in HeLa-CEM21 co-culture – HeLa F-luc CTL cells, cherry-picked, counter-screen for HIV-1 Env fusion inhibitor project, dose response (AID 652040); format: functional, cell-based;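 further: potency for signal decrease marking cytotoxic or nonspecific inhibition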
[26] = cells; format: functional, cell-based; remark: listed apart in the source
[27] = CEM21 lymphoblast cell cytotoxicity, dose response, cytotoxicity control for viral fusion inhibitor project, CellTiter-Glo luminescence, cherry-picked (AID 652042); format: functional, cell-based;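 further: potency for signal decrease meaning cytotoxicity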
[28] = inhibitors of HIV Env-driven cell fusion, dose response, cherry-pick (AID 652057); format: functional, cell-based
[29] = target: T2, Heat shock factor protein 1 (Mus musculus, UniProt P38532); experiment: inhibition of MG132-induced HSE-luciferase signal, confirmation, cell-based, NIH3T3, luminescence, dose retest (AID 2382); format: functional;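 further: NIH3T3 fibroblasts with HSF1-driven luciferase reporter stressed by proteasome inhibitor MG132; luminescence from HSF1-driven luciferase expression after 8 hours of MG132 stress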
T2 sequence (P38532 whole entry): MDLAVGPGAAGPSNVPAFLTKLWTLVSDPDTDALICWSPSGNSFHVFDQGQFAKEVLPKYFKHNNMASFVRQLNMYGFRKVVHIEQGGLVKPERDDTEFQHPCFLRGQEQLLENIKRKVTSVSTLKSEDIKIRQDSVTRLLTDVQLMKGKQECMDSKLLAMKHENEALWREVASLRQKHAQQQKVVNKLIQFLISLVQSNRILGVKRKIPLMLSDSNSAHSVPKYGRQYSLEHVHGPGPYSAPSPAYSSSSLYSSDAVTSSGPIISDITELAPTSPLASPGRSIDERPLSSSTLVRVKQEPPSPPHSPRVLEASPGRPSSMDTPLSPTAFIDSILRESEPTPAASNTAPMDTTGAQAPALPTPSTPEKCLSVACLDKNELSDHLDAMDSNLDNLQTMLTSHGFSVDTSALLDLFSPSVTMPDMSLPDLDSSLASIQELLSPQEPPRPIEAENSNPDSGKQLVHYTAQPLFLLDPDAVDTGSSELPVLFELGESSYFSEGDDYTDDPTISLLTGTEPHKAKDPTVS

With `Cc1ccsc1C(=O)C1CCCN(Cc2cnn(C(C)C)c2)C1` (centres undefined) the EC50 [1] was < 0.1 µM (active), the EC50 [2] was > 60 µM (inconclusive) and the EC50 [3] was 0.01 µM (active).

In the case of `O=S(=O)(Cc1cc(Cl)nc(-c2ccccc2)n1)c1ccccc1`, the EC50 [4] is reported as 5.36 µM (active) and the EC50 [5] is reported as > 29.9 µM (not active).

With `CCC(=O)[C@]12O[C@@]3(C4C(=O)OCCC41)N(CC)C(C)=C(C(=O)OC)C(c1ccccc1)N3C2=O` (some centres undefined) the AC50 [6] was 5.01 µM (inconclusive).

For `CCCS(=O)(=O)N1CCC(C(=O)NCCc2ccccc2)CC1`, the EC50 [7] was > 20 µM (not active) and the EC50 [8] was > 20 µM (not active).

In the case of `CN(C)c1ccc(C(=C2C=CC(=[N+](C)C)C=C2)c2ccc(N(C)C)cc2)cc1` [GENTIAN VIOLET], the IC50 [9] is reported as 0.471 µM (active), the IC50 [10] is reported as 0.514 µM (active) and the IC50 [11] is reported as 0.994 µM (active). For the same compound, the IC50 [12] was 0.528 µM (active), the IC50 [13] was 0.394 µM (active) and the IC50 [14] was 2.05 µM (active). For the same compound, the IC50 [15] was 0.466 µM (active).

In the case of `CC1CCC(C(C)C)C(OC(=O)c2ccccc2O)C1` (centres undefined), the IC50 [9] is reported as > 20 µM (inactive), the IC50 [10] is reported as > 20 µM (inactive) and the IC50 [11] is reported as > 20 µM (inactive). The IC50 [12] was > 20 µM (inactive), the IC50 [13] was > 20 µM (inactive) and the IC50 [14] was > 20 µM (inactive). For the same compound, the IC50 [16] was > 20 µM (inactive) and the IC50 [15] was > 20 µM (inactive).

In the case of `CCOc1ccc2c(c1)C(C)=CC(C)(C)N2S(=O)(=O)c1ccc(C)cc1`, the EC50 [17] is reported as > 160 µM (inactive), the EC50 [4] is reported as > 29.9 µM (not active) and the EC50 [18] is reported as 1.36 µM (active). The EC50 [19] was 0.147 µM (active), the EC50 [5] was > 29.9 µM (not active) and the EC50 [20] was 0.497 µM (active). The EC50 [21] was > 38 µM (not active).

In the case of `CC1CN(c2oc(COc3ccc(Cl)cc3Cl)nc2C#N)CC(C)O1` (centres undefined), the EC50 [7] is reported as > 20 µM (not active) and the EC50 [8] is reported as > 20 µM (not active).

For `COc1ccc2cc3c(N)nn(C(=O)Cc4c[nH]c5ccccc45)c3nc2c1`, the AC50 [22] was 0.261 µM (active), the EC50 [23] was > 350 µM (not active) and the EC50 [18] was < 0.1 µM (active). For the same compound, the EC50 [19] was 23 µM (active), the AC50 [24] was 0.563 µM (active) and the AC50 [25] was 0.512 µM (active). For the same compound, the EC50 [26] was > 350 µM (not active), the EC50 [20] was 11.5 µM (active) and the AC50 [27] was 7.5 µM (active). For the same compound, the AC50 [28] was 0.352 µM (active) and the EC50 [29] was 0.269 µM (active).

For `CCC1Nc2cc(Cl)c(S(N)(=O)=O)cc2S(=O)(=O)N1` (centres undefined) [ETHIAZIDE], the IC50 [9] was > 20 µM (inactive), the IC50 [10] was > 20 µM (inactive) and the IC50 [11] was > 20 µM (inactive). For the same compound, the IC50 [12] was > 6.67 µM (inactive), the IC50 [13] was > 20 µM (inactive) and the IC50 [14] was > 20 µM (inactive). For the same compound, the IC50 [16] was > 20 µM (inactive) and the IC50 [15] was > 20 µM (inactive).

With `COc1cccc(CC2(CO)CCCN(Cc3cn(C)c4ccccc34)C2)c1` (centres undefined) the EC50 [1] was < 0.1 µM (active), the EC50 [2] was 20 µM (active) and the EC50 [3] was 0.051 µM (active).
